Measured values from patent US7279321B2, “Methods for increasing the resistance of a host cell to aromatic carboxylic acids” (priority 2003, dated 2007).
Converted amounts (≈) assume the structure as drawn.

Legend:
E. coli MG1655 (yhcP+) = assay: microbe, parasite or virus in culture; assay type: cell-based
Description: Additional compounds were tested for growth inhibition of E. coli MG1655 (yhcP^+) and DPD2444 (yhcP^−) in Vogel-Bonner medium with glucose as the carbon source and with 0.01% tetrazolium violet added as an indicator of viability. A series of two-fold dilutions of each chemical was made to the wells of a clear 96-well microplate in 50 μl volume. To these wells was added 50 μl of an overnight culture in Vogel Bonner medium with glucose as a carbon source of either MG1655 or DPD2444 that had been previously diluted 500-fold into fresh medium. The plates were incubated at 37° C. without shaking for 16 to 18 hours. The purple color in each well was visually scored. A score of 4+ indicated full purple color equivalent to a no chemical control well. Scores of 3+, 2+, or 1+ indicated decreasing amounts of purple color. A score of − indicated the complete absence of color. The MIC was defined as the lowest tested concentration that gave complete absence of color. The rank of difference between strains was defined as the score of pigment color for E. coli MG1655 in wells containing the concentration of a given chemical at the MIC for DPD24444. When MG1655 had no color, the score was 0. When MG 1655 was scored at 1+, the score was 1, when scored at 2+, the score was 2, etc.

[1] = test system: yhcP gene (co-transcribed with yhcQ and yhcR); assay: expression of yhcP upon treatment of E. coli cells with aromatic carboxylic acids; assay type: cell-based

O=C(O)c1ccc(O)cc1 [pHBA, para-hydroxybenzoic acid]
MIC (E. coli MG1655 (yhcP+); Escherichia coli, MG1655, read-out: MIC, MG1655 (yhcP+)): 100 mM (≈ 13.8 mg/mL)
Rank Diff (E. coli MG1655 (yhcP+); score of pigment color for MG1655 at the MIC for DPD2444 (0 = no color, 4 = full purple color)): 4
expression of the yhcP gene upon treatment of E. coli cells [1]: highly upregulated
